Reference: patent publication US20260294915A1, “COMBINATION THERAPY COMPRISING A MAT2A INHIBITOR AND A TOPOISOMERASE INHIBITOR, A SPLICING INHIBITOR SULFONAMIDE, OR A KIF18 INHIBITOR” (IDEAYA BIOSCIENCES, INC., priority 2023, published 2026)

Key:
Test in all cases: 10-day proliferation (CTG), equimolar Compound A + SPLAM (Example 4)
Format in all cases: cell-based
Conditions in all cases: 10 days, single agent or 1:1 combo
SW900 = system: SW900
Experimental: (§1) A 10-day proliferation assay was performed in a panel of 5 MTAP-deficient and 2 wild type non-small cell lung and bladder cancer cell lines. Optimal cell seeding for all cell lines was determined by assessing the growth over a range of seeding densities in a 384-well format to identify conditions that permitted proliferation for 10 days. Cells were then plated at the optimal seeding density and treated with 20-point, two-fold dilution series of Compound A, the splicing inhibitor sulfonamide (SPLAM), or an equimolar combination of Compound A and the SPLAM. Combinations tested included Compound A in combination with four structurally different SPLAMs. Concentrations tested for Compound A and each SPLAM alone or in combination ranged from 0.04 nM to 20,000 nM. A plate of cells was harvested at the time of compound addition to quantify the number of cells at the start of the combination (T0). For cell quantification, the harvested cells were lysed with Promega CellTiter-Glo (CTG) reagent according to the manufacturer's protocol and the chemiluminescent signal was detected on a Synergy Neo plate reader. CTG estimates cell number through detection of cellular ATP levels. Cells were incubated with the drug combinations at 37° C. with 5% CO2 for 10 days. Cells were then lysed with CTG and the chemiluminescent signal was measured.
(§2) CTG values obtained after the 10-day treatment were background subtracted and expressed as a percent of the T0 value. Data were plotted against compound concentration and fit with a four-parameter equation to generate dose response curves for each single agent and the equimolar combination. Growth ICx (gICx) values ranging from gIC30 to gIC100 were interpolated from the fitted curves. Synergistic growth inhibition was assessed by determination of Combination Index (CI) values at these various points across the titration using the mutually non-exclusive equation [Chou, 1983; Chou, 1981] shown below where A equals the gICx value of Compound A, B equals the gICx value of the SPLAM, and A+B or B+A equals the gICx value of the equimolar combination. A Combination Index value less than 1.0 was considered synergistic.

UMUC5 = system: UMUC5
Experimental: as §1, §2

NCI-H838 = system: NCI-H838
Experimental: as §1, §2

RT112/84 = system: RT112/84
Experimental: as §1, §2

NCI-H520 = system: NCI-H520
Experimental: as §1, §2

UMUC11 = system: UMUC11
Experimental: as §1, §2

Cc1ccc(NS(=O)(=O)c2cccc(C#N)c2)c2[nH]cc(C#N)c12 [Compound E7820, 3-cyano-N-(3-cyano-4-methyl-1H-indol-7-yl)benzenesulfonamide]
gIC30 (SW900): 284 nM | gIC40 (SW900): 290 nM | gIC60 (SW900): 303 nM | gIC70 (SW900): 309 nM | gIC100 (SW900): 362 nM | IC80 (SW900; read-out: gIC80): 318 nM | IC90 (SW900; read-out: gIC90): 330 nM | IC50 (SW900; Homo sapiens, SW900, 240 h, read-out: gIC50): 296 nM | IC50 (UMUC5; 240 h, read-out: gIC50): 460 nM | gIC30 (UMUC5): 330 nM | gIC40 (UMUC5): 390 nM | gIC60 (UMUC5): 547 nM | gIC70 (UMUC5): 673 nM | gIC100 (UMUC5): 20 µM | IC80 (UMUC5; read-out: gIC80): 900 nM | IC90 (UMUC5; read-out: gIC90): 1900 nM | gIC30 (NCI-H838): 328 nM | gIC40 (NCI-H838): 357 nM | gIC60 (NCI-H838): 425 nM | gIC70 (NCI-H838): 472 nM | gIC100 (NCI-H838): 20 µM | IC80 (NCI-H838; read-out: gIC80): 539 nM | IC90 (NCI-H838; read-out: gIC90): 666 nM | IC50 (NCI-H838; Homo sapiens, NCI-H838, 240 h, read-out: gIC50): 388 nM | gIC30 (RT112/84): 213 nM | gIC40 (RT112/84): 237 nM | gIC60 (RT112/84): 290 nM | gIC70 (RT112/84): 326 nM | gIC100 (RT112/84): 10.429 µM | IC80 (RT112/84; read-out: gIC80): 375 nM | IC90 (RT112/84; read-out: gIC90): 466 nM | IC50 (RT112/84; Homo sapiens, RT112/84, 240 h, read-out: gIC50): 262 nM | gIC30 (NCI-H520): 484 nM | gIC40 (NCI-H520): 596 nM | gIC60 (NCI-H520): 920 nM | gIC70 (NCI-H520): 1214 nM | gIC100 (NCI-H520): 20 µM | IC80 (NCI-H520; read-out: gIC80): 1840 nM | IC90 (NCI-H520; read-out: gIC90): 12 µM | IC50 (NCI-H520; Homo sapiens, NCI-H520, 240 h, read-out: gIC50): 734 nM | IC50 (UMUC11; 240 h, read-out: gIC50): 452 nM | gIC30 (UMUC11): 361 nM | gIC40 (UMUC11): 404 nM | gIC60 (UMUC11): 511 nM | gIC70 (UMUC11): 589 nM | gIC100 (UMUC11): 20 µM | IC80 (UMUC11; read-out: gIC80): 713 nM | IC90 (UMUC11; read-out: gIC90): 1010 nM
